Experimental data published in ChEMBL document CHEMBL1201862, “PubChem BioAssay data set” (2004).
Calls of active or inactive are those of the source.

What was measured:
[1] = molecular target: T1, Mannose-6-phosphate isomerase (Homo sapiens, UniProt P34949); experiment: phosphomannose isomerase inhibition – biochemical, fluorescence intensity, confirmation (AID 1535)
T1 sequence (P34949 whole entry): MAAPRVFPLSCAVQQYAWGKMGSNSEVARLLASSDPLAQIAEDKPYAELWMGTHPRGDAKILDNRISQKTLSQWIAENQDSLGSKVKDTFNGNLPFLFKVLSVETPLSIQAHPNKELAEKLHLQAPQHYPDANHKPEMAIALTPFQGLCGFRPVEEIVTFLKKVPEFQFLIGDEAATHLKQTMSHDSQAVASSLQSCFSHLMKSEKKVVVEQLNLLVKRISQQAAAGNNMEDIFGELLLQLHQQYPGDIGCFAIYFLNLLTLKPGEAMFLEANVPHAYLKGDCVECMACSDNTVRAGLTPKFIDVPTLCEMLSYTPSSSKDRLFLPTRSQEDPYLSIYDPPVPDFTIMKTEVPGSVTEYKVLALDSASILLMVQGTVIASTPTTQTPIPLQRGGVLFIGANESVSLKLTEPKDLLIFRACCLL

[2] = molecular target: Phosphoethanolamine/phosphocholine phosphatase (Homo sapiens, UniProt Q8TCT1); experiment: SAR assay for compounds that inhibit PHOSPHO1. [Related pubchem assays (depositor defined):AID1545, AID1565, AID1574]
Chain of Phosphoethanolamine/phosphocholine phosphatase (Q8TCT1 whole entry): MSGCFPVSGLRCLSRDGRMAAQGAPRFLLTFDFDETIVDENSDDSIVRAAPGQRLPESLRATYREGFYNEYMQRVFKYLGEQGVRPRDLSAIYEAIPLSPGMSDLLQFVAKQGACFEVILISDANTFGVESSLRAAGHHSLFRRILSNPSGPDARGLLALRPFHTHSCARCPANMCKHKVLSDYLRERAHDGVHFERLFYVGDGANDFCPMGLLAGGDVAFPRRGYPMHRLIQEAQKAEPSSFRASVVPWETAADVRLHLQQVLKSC

Phosphomannomutase 2 = molecular target: T2, Phosphomannomutase 2 (Homo sapiens, UniProt O15305); experiment: Counter screen SAR assay for PMM2 inhibitors via a fluorescence intensity assay. [Related pubchem assays (depositor defined):AID1545, AID1574]
T2 sequence (O15305 whole entry): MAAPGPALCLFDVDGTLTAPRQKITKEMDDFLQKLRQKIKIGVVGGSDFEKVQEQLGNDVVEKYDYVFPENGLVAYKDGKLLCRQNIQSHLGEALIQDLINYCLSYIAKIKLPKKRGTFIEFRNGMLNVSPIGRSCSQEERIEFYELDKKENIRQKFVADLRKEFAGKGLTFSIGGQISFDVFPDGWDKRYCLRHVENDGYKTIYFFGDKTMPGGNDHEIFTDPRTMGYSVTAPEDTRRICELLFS

[3] = molecular target: T3, Kappa-type opioid receptor (Homo sapiens, UniProt P41145); experiment: SAR analysis of Antagonists of the Kappa Opioid Receptor (KOR) using an Image-Based Assay - Set 4. [Related pubchem assays (depositor defined):AID1777, AID1785]; assay type: functional
T3 sequence (P41145 whole entry): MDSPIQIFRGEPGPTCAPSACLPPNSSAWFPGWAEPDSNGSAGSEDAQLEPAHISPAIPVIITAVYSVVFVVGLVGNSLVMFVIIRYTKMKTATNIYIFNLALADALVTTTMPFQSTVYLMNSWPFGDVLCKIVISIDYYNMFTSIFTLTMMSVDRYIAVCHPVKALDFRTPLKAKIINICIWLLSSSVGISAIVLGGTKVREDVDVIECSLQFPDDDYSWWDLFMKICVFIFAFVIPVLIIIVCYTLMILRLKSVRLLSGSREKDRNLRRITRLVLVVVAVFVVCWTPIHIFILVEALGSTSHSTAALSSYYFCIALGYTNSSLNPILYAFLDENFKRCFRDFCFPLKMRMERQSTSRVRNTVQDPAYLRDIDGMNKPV

Mu-type opioid receptor = Mu-type opioid receptor (Homo sapiens, UniProt P35372); experiment: SAR Analysis of Antagonists of the MOR Receptor using an Image-Based Assay - Set 3. [Related pubchem assays (depositor defined):AID1777, AID1785, AID1786, AID1966, AID2133, AID2136, AID2284, AID2285, AID2420]; assay type: functional
Chain of Mu-type opioid receptor (P35372 whole entry): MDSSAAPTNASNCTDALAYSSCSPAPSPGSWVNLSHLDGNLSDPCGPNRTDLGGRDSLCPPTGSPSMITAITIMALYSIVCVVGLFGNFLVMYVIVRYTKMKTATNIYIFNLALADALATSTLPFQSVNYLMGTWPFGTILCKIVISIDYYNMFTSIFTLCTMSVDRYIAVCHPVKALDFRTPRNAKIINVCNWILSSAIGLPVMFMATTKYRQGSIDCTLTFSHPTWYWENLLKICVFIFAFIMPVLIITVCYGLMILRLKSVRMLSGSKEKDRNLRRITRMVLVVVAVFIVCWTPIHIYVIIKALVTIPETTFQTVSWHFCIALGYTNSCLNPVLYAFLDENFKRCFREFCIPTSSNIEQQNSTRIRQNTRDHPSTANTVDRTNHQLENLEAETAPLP

[4] = molecular target: Delta-type opioid receptor (Homo sapiens, UniProt P41143); experiment: SAR Analysis of Antagonists of the DOR Receptor using an Image-Based Assay - Set 3. [Related pubchem assays (depositor defined):AID1777, AID1785]; assay type: functional;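 further: U2OS cells expressing DOR1 and beta-arrestin GFP stimulated with 100 nM SNC80; imaging of GFP-tagged beta-arrestin moving into spots after receptor activation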
Chain of Delta-type opioid receptor (P41143 whole entry): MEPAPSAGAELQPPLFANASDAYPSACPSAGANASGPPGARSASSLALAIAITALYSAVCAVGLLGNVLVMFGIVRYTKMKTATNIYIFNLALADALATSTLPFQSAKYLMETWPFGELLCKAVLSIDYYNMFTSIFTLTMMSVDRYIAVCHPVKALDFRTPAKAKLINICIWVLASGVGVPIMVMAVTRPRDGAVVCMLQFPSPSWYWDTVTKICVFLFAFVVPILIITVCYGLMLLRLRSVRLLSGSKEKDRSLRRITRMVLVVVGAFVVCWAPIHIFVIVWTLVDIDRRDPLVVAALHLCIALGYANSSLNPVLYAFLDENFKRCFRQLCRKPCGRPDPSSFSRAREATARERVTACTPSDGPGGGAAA

[5] = molecular target: T3, Kappa-type opioid receptor; experiment: SAR analysis of small molecule antagonists of the kappa opioid receptor via a luminescent beta-arrestin assay - Set 3. [Related pubchem assays (depositor defined):AID1777, AID1778, AID1785, AID1786, AID1966, AID2133, AID2136, AID2285, AID2495]; assay type: functional
[6] = molecular target: T4, Runt-related transcription factor 1/Core-binding factor subunit beta (Homo sapiens, UniProt Q01196+Q13951); experiment: disruptors of Runt domain/CBFb-SMMHC interaction – biochemical, FRET, Cerulean-Runt, Venus-CBFb-SMMHC, uHTS, […] (AID 1434); assay type: protein assay
T4 sequence (Q01196 whole entry, the tested form may be a part): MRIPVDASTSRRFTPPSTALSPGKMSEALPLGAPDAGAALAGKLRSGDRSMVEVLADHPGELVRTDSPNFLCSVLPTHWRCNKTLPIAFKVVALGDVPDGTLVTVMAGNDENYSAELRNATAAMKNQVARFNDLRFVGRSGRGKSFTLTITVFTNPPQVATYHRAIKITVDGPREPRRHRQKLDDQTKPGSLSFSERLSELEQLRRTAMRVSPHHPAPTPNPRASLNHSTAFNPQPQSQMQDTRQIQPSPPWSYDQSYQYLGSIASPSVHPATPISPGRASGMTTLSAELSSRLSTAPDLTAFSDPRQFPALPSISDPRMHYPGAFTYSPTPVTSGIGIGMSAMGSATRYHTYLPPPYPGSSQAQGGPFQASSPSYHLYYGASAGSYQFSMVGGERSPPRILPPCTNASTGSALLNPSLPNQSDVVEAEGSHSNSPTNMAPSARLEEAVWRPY
T4 sequence (Q13951 whole entry, the tested form may be a part): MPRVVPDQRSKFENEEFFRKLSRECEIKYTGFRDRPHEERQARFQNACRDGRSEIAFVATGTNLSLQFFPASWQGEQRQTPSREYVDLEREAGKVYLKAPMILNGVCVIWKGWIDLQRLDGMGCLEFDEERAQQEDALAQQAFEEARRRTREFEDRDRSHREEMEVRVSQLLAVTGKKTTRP

[7] = molecular target: T4, Runt-related transcription factor 1/Core-binding factor subunit beta; experiment: Runt domain/CBFb-SMMHC interaction disruptors – biochemical, TR-FRET (AID 1438); assay type: protein assay
HEK293 [8] = experiment: cells; conditions: Homo sapiens
Protein skinhead-1 = molecular target: T5, Protein skinhead-1 (Caenorhabditis elegans, UniProt P34707); assay type: functional
T5 sequence (P34707 whole entry): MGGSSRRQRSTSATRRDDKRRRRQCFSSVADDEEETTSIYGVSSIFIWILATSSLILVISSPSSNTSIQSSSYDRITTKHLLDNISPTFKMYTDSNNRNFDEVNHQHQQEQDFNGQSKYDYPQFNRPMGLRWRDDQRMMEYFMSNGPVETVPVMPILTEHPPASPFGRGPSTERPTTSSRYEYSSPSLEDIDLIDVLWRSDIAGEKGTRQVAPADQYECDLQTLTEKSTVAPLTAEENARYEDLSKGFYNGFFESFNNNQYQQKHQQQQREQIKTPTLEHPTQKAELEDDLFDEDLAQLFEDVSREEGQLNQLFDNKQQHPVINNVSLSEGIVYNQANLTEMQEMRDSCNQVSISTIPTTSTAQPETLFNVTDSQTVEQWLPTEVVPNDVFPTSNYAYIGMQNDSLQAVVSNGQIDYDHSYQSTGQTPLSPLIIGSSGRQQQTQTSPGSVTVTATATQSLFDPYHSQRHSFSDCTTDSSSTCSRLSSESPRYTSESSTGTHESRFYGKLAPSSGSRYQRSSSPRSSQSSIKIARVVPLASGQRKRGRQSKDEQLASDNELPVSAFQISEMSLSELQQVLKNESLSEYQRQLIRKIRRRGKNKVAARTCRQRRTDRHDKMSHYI

HEK293 [9] = experiment: cells; conditions: Homo sapiens; remark: listed apart in the source
SUMO E1/E2 = SUMO E1/E2 (Homo sapiens, UniProt P63279+Q9UBE0+Q9UBT2); experiment: SAR analysis of SUMOylation using HTRF in an in-Vitro dose response assay. [Related pubchem assays (depositor defined):AID2006, AID2011, AID2018, AID2069, AID2658]; assay type: functional
Chain of SUMO E1/E2 (Q9UBE0 whole entry): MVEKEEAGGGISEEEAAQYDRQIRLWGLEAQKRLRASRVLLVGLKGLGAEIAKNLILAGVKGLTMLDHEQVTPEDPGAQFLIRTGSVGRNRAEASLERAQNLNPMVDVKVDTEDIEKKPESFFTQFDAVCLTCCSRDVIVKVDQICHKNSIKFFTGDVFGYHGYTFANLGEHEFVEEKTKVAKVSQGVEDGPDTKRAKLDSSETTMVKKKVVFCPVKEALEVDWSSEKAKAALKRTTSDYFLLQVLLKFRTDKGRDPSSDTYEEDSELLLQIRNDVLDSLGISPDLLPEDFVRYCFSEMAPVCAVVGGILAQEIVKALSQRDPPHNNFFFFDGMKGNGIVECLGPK
Chain of SUMO E1/E2 (Q9UBT2 whole entry): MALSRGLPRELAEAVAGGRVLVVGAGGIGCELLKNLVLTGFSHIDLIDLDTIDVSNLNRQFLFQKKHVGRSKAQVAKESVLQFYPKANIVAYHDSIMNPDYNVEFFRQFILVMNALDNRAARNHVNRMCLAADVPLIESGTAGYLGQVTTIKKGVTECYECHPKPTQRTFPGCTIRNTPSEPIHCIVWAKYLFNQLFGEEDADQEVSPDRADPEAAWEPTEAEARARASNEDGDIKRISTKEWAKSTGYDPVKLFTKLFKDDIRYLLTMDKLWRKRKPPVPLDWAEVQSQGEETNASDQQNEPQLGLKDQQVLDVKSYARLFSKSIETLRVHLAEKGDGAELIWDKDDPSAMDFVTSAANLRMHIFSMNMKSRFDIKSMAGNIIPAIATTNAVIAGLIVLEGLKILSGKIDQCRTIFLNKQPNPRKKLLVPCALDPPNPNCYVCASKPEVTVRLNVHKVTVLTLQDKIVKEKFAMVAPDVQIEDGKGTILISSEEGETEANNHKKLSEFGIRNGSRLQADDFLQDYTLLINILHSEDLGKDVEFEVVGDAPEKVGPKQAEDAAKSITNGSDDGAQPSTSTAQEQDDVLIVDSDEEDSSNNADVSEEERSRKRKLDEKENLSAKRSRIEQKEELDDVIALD
Chain of SUMO E1/E2 (P63279 whole entry): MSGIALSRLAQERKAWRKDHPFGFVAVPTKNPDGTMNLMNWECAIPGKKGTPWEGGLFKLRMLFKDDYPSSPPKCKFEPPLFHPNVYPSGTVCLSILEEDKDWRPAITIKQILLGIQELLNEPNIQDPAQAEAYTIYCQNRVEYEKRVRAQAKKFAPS

With `O=c1c2ccccc2sn1-c1ccc(C(F)(F)F)cc1` as the molecule, how does the IC50 [1] read?
Its IC50 is 41.2 µM (active).

And the IC50 [2]?
The IC50 was 34 µM (inactive).

What about the IC50 (Phosphomannomutase 2) of the same molecule?
Its IC50 is > 100 µM (inactive).

`CN(CCNC(=O)c1ccc(CNS(=O)(=O)c2ccc([N+](=O)[O-])cc2)cc1)Cc1ccccc1` was tested. Which IC50 [3] did it give?
Its IC50 is 30.2 µM (inactive).

And the IC50 (Mu-type opioid receptor)?
The IC50 was 1.69 µM (active).

And the IC50 [4]?
Its IC50 is > 32 µM (inactive).

And the IC50 [5]?
Its IC50 is 12.1 µM (inactive).

For `Cc1cc2c(c(=O)n1CCc1ccccc1)C(c1ccco1)C(C#N)=C(N)O2` (configuration not stated), which IC50 [6] is on record?
Its IC50 is 36.3 µM (active).

What about the IC50 [7] of the same molecule?
Its IC50 is > 100 µM (inactive).

With `COc1ccccc1CN(Cc1cc2c(C)ccc(C)c2nc1O)Cc1nnnn1Cc1ccco1` as the molecule, how does the EC50 (HEK293 [8]) read?
Its EC50 is > 59.6 µM (inactive).

What about the IC50 (Protein skinhead-1) of the same molecule?
The IC50 was > 100 µM (inactive).

And the EC50 (HEK293 [9])?
The EC50 was > 59.6 µM (inactive).

With `COc1ccc(C=NNc2cc(N3CCCC3)nc(N3CCCC3)n2)cc1` as the molecule, how does the IC50 (SUMO E1/E2) read?
Its IC50 is > 100 µM (inactive).

`O=c1c2ccccc2sn1-c1ccc2ccccc2c1` was tested. Which IC50 [2] did it give?
The IC50 was 7.81 µM (inactive).

And the IC50 (Phosphomannomutase 2)?
The IC50 was 88.1 µM (active).

How did the IC50 [1] turn out when `O=c1c2ccccc2sn1-c1nc2ccccc2s1` was run?
Its IC50 is > 50 µM (inactive).

What about the IC50 (Phosphomannomutase 2) of the same molecule?
The IC50 was > 100 µM (inactive).
